According to PubChem BioAssay AID330 (DTP/NCI, 2004):
Values joined by “and” are separate entries in the source; they are usually repeats but may differ in a detail not shown here. Identical values can stand only once. Toxic doses and inconclusive results are not listed. The calls were made as follows: active = survival T/C of 150% or more; inactive = T/C below 125% in these data.

Tested on: P388 leukemia ip, CD2F1 mice, survival T/C
Assay: NCI In Vivo Anticancer Drug Screen. Data for tumor model P388 Leukemia (intraperitoneal) in CD2F1 (CDF1) mice
Settings: endpoint: median survival time, higher = longer survival
Outline: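 Mice carrying the transplanted tumor received test compound or vehicle. Survival was recorded in each group, and the value is the treated-group measurement divided by that of the vehicle-treated control group.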

[1] = dose: 12.5 mg/kg/injection, schedule: Q01DX009 (ip), vehicle: distilled water + Tween-80
[2] = dose: 25.0 mg/kg/injection, schedule: Q01DX009 (ip), vehicle: distilled water + Tween-80
[3] = dose: 50.0 mg/kg/injection, schedule: Q01DX009 (ip), vehicle: distilled water + Tween-80
[4] = dose: 100.0 mg/kg/injection, schedule: Q01DX009 (ip), vehicle: distilled water + Tween-80
[5] = dose: 12.5 mg/kg/injection, schedule: Q01DX009 (ip), vehicle: saline with Tween-80
[6] = dose: 25.0 mg/kg/injection, schedule: Q01DX009 (ip), vehicle: saline with Tween-80
[7] = dose: 50.0 mg/kg/injection, schedule: Q01DX009 (ip), vehicle: saline with Tween-80
[8] = dose: 100.0 mg/kg/injection, schedule: Q04DX002 (ip), vehicle: saline
[9] = dose: 200.0 mg/kg/injection, schedule: Q04DX002 (ip), vehicle: saline
[10] = dose: 50.0 mg/kg/injection, schedule: Q01DX009 (ip), vehicle: Klucel (hydroxypropylcellulose) (HPC)
[11] = dose: 100.0 mg/kg/injection, schedule: Q01DX009 (ip), vehicle: Klucel (hydroxypropylcellulose) (HPC)
[12] = dose: 200.0 mg/kg/injection, schedule: Q01DX009 (ip), vehicle: Klucel (hydroxypropylcellulose) (HPC)
[13] = dose: 100.0 mg/kg/injection, schedule: Q01DX009 (ip), vehicle: saline with Tween-80
[14] = dose: 12.5 mg/kg/injection, schedule: Q01DX009 (ip), vehicle: Klucel (hydroxypropylcellulose) (HPC)
[15] = dose: 50.0 mg/kg/injection, schedule: Q01DX005 (ip), vehicle: saline with Tween-80
[16] = dose: 100.0 mg/kg/injection, schedule: Q01DX005 (ip), vehicle: saline with Tween-80
[17] = dose: 200.0 mg/kg/injection, schedule: Q01DX005 (ip), vehicle: saline with Tween-80
[18] = dose: 50.0 mg/kg/injection, schedule: Q01DX005 (ip), vehicle: Klucel (hydroxypropylcellulose) (HPC)
[19] = dose: 100.0 mg/kg/injection, schedule: Q01DX005 (ip), vehicle: Klucel (hydroxypropylcellulose) (HPC)
[20] = dose: 60.0 mg/kg/injection, schedule: Q01DX005 (ip), vehicle: saline with Tween-80
[21] = dose: 60.0 mg/kg/injection, schedule: Q01DX005 (ip), vehicle: saline
[22] = dose: 120.0 mg/kg/injection, schedule: Q01DX005 (ip), vehicle: saline with Tween-80
[23] = dose: 120.0 mg/kg/injection, schedule: Q01DX005 (ip), vehicle: saline
[24] = dose: 240.0 mg/kg/injection, schedule: Q01DX005 (ip), vehicle: saline with Tween-80
[25] = dose: 240.0 mg/kg/injection, schedule: Q01DX005 (ip), vehicle: saline
[26] = dose: 50.0 mg/kg/injection, schedule: Q01DX009 (ip), vehicle: saline
[27] = dose: 100.0 mg/kg/injection, schedule: Q01DX009 (ip), vehicle: saline
[28] = dose: 200.0 mg/kg/injection, schedule: Q01DX009 (ip), vehicle: saline

Measured: T/C

CCO/C(C)=N\P(=O)(Oc1ccccc1)Oc1ccccc1
inactive: [1] 105 % of control | [2] 102 % of control | [3] 110 % of control | [4] 102 % of control

COC(=O)c1ccc(Cl)cc1O
inactive: [1] 92 % of control | [2] 100 % of control | [3] 102 % of control | [4] 102 % of control | dose: 200.0 mg/kg/injection, schedule: Q01DX009 (ip), vehicle: distilled water + Tween-80 92 % of control

Fc1ccc(OCCC(Cn2ccnc2)c2ccc(Cl)cc2Cl)cc1 (stereo not given)
inactive: [5] 106 % of control | [6] 106 % of control | [7] 88 % of control and 94 % of control

CNC(=S)N/N=C\C(C)=N/N1CCCCCC1
inactive: [8] 97 % of control | [9] 101 % of control | dose: 400.0 mg/kg/injection, schedule: Q04DX002 (ip), vehicle: saline 93 % of control

CN(C(=S=O)c1ccccc1)c1ccc([N+](=O)[O-])cc1
inactive: dose: 50.0 mg/kg/injection, schedule: Q04DX002 (ip), vehicle: saline 95 % of control | [8] 95 % of control | [9] 96 % of control

Cc1ncc([N+](=O)[O-])n1Cc1nncs1
inactive: [10] 108 % of control | [11] 107 % of control | [12] 104 % of control

O=c1c(Cl)c2cc3c(cc2c2ccccc12)nc1ccccc1n3-c1ccccc1
inactive: dose: 400.0 mg/kg/injection, schedule: Q01DX001 (ip), vehicle: saline with Tween-80 89 % of control

CCN(CC)c1cc(Cl)ccc1Cl
inactive: [6] 104 % of control | [7] 104 % of control | [13] 100 % of control

CC(=O)OC(C(=O)CBr)C(OC(C)=O)C(OC(C)=O)C(=O)CBr (stereo not given)
inactive: [14] 114 % of control | dose: 25.0 mg/kg/injection, schedule: Q01DX009 (ip), vehicle: Klucel (hydroxypropylcellulose) (HPC) 96 % of control

CN1C(=O)C(=N[O-])C(=O)N(C)C1=O.CN1C(=O)C(=N[O-])C(=O)N(C)C1=O.CN1C(=O)C(=N[O-])C(=O)N(C)C1=O.[Co+3]
inactive: [15] 100 % of control | [16] 119 % of control | [17] 107 % of control

CCOC(=O)c1cnc(=O)[nH]c1C(=O)OCC
inactive: [18] 91 % of control | [19] 100 % of control | dose: 200.0 mg/kg/injection, schedule: Q01DX005 (ip), vehicle: Klucel (hydroxypropylcellulose) (HPC) 99 % of control

OC1(CN2CCCCC2)CCCOCCCOCCCOCCCOCCCOCCC1
inactive: [15] 94 % of control | [16] 99 % of control | [17] 100 % of control

CN(C)C1=Nc2ccc(Cl)cc2C(c2ccccc2)=NC1O (stereo not given)
inactive: dose: 60.0 mg/kg/injection, schedule: Q01DX005 (ip), vehicle: Klucel (hydroxypropylcellulose) (HPC) 95 % of control | dose: 120.0 mg/kg/injection, schedule: Q01DX005 (ip), vehicle: Klucel (hydroxypropylcellulose) (HPC) 98 % of control | dose: 240.0 mg/kg/injection, schedule: Q01DX005 (ip), vehicle: Klucel (hydroxypropylcellulose) (HPC) 100 % of control

O=C(O)c1cccnc1Cl
inactive: [7] 103 % of control | [13] 96 % of control | dose: 200.0 mg/kg/injection, schedule: Q01DX009 (ip), vehicle: saline with Tween-80 100 % of control

COc1cc2oc(-c3ccc(O)cc3O)c(CC=C(C)C)c(=O)c2c(O)c1/C=C/C(C)C
inactive: dose: 1.56 mg/kg/injection, schedule: Q01DX009 (ip), vehicle: Klucel (hydroxypropylcellulose) (HPC) 107 % of control | dose: 3.12 mg/kg/injection, schedule: Q01DX009 (ip), vehicle: Klucel (hydroxypropylcellulose) (HPC) 105 % of control | dose: 6.25 mg/kg/injection, schedule: Q01DX009 (ip), vehicle: Klucel (hydroxypropylcellulose) (HPC) 100 % of control | [14] 98 % of control

O=C(CBr)NCC1OC(n2cnc3c(=O)[nH]cnc32)C(O)C1O (stereo not given)
inactive: dose: 25.0 mg/kg/injection, schedule: Q01DX005 (ip), vehicle: Klucel (hydroxypropylcellulose) (HPC) 99 % of control | [18] 96 % of control | [19] 99 % of control

O=C(NNC(=S)NC1OC(CO)C(O)C(O)C1O)c1cccc(C(=O)NNC(=S)NC2OC(CO)C(O)C(O)C2O)n1 (stereo not given)
inactive: [20] 97 % of control | [21] 106 % of control | [22] 100 % of control | [23] 106 % of control | [24] 96 % of control | [25] 101 % of control

Cc1ccc(S(=O)(=O)C(Sc2ccccc2)=S=NC23CC4CC(CC(C4)C2)C3)cc1
inactive: [26] 100 % of control | [27] 108 % of control | [28] 97 % of control

COc1nc(NC2OC(COC(C)=O)C(OC(C)=O)C(OC(C)=O)C2OC(C)=O)c2ccoc2n1 (stereo not given)
inactive: [20] 100 % of control | [22] 101 % of control | [24] 98 % of control

CC1C2=C(CC(=O)NC2=O)C(=O)N1Cc1ccccc1 (stereo not given)
inactive: [10] 103 % of control | [11] 106 % of control | [12] 97 % of control

O=c1[nH]cnc2cc(N3CCN(Cc4ccccc4)CC3)c([N+](=O)[O-])cc12
inactive: dose: 100.0 mg/kg/injection, schedule: Q04DX003 (ip), vehicle: Klucel (hydroxypropylcellulose) (HPC) 102 % of control | dose: 200.0 mg/kg/injection, schedule: Q04DX003 (ip), vehicle: Klucel (hydroxypropylcellulose) (HPC) 98 % of control | dose: 400.0 mg/kg/injection, schedule: Q04DX003 (ip), vehicle: Klucel (hydroxypropylcellulose) (HPC) 106 % of control

COC(=O)[C@@H]1N2C(=O)C=NO[C@H]2SC1(C)C
inactive: [21] 95 % of control | [23] 98 % of control | [25] 104 % of control

O=C1CCC(O)N1CN1C(=O)CCC1O (stereo not given)
inactive: [21] 100 % of control | [23] 108 % of control | [25] 100 % of control

Fc1ccc(Nc2c3ccccc3nc3ccccc23)cc1
inactive: [5] 110 % of control | [6] 120 % of control

CCC(=O)NC(CC(=O)O)c1cccs1 (stereo not given)
inactive: dose: 12.5 mg/kg/injection, schedule: Q01DX009 (ip), vehicle: saline 102 % of control | dose: 25.0 mg/kg/injection, schedule: Q01DX009 (ip), vehicle: saline 104 % of control | [26] 107 % of control | [27] 90 % of control | [28] 93 % of control

CC1(C)COSOC1
inactive: dose: 100.0 mg/kg/injection, schedule: Q01DX001 (ip), vehicle: Klucel (hydroxypropylcellulose) (HPC) 98 % of control | dose: 200.0 mg/kg/injection, schedule: Q01DX001 (ip), vehicle: Klucel (hydroxypropylcellulose) (HPC) 104 % of control | dose: 400.0 mg/kg/injection, schedule: Q01DX001 (ip), vehicle: Klucel (hydroxypropylcellulose) (HPC) 104 % of control

O=C(OCOC(=O)N1CCOCC1)N1CCOCC1
inactive: [20] 105 % of control | [24] 94 % of control
